The values below come from patent US20240254129A1, “HETEROCYCLIC COMPOUNDS AND USES THEREOF” (Kumquat Biosciences Inc., priority 2021, published 2024).

SMILES strings stand for the structures. Read-outs that look alike come from different tables or passages of the source. Bounds are passed on as bounds.

The target in one test is T1, K-Ras G12D mutant (Homo sapiens, UniProt P01116, G12D).
T1 construct: GST (N); made in house; host or cells: E. coli BL21 (DE3)
Nature of the test: Nucleotide exchange assay (SOS1, BODIPY FL GDP), mutant K-Ras. In kind it is biochemical. The note with it: compound marked *: general methodology of example 7 (nucleotide exchange); read-out: IC50 against mutant Kras. The protocol: (§1) This assay can be also used to assess a selective inhibition of a mutant Ras protein relative to a wildtype, or relative to a different mutant Ras protein. For example, 250 nM or 500 nM GDP-loaded K-Ras proteins (e.g., wildtype or a mutant thereof including those mentioned in Example 6), each was incubated with different concentrations of compounds (for example ˜60 μM, ˜20 μM, ˜6.7 μM, ˜2.2 μM, ˜0.7 µM, ˜0.2 μM subject compound). A control reaction without subject compound was also included. SOS1 (catalytic domain) protein was added to the K-Ras protein solution. The nucleotide exchange reaction was initiated by adding fluorescent labelled GDP (Guanosine 5′-Diphosphate, BODIPY™ FL 2′-(or-3′)—O—(N-(2-Aminoethyl) Urethane) to a final concentration of 0.36 μM. Fluorescence was measured every 30 s for 70 minutes at 490 nm/515 nm (excitation/emission) in a M1000Pro plate reader (Tecan). Data is exported and analyzed to calculate an IC50 using GraphPad Prism (GraphPad Software). Sample(s) was tested with or without a subject compound disclosed herein including compound(s) exemplified in Table 1 to assess compound's ability to inhibit K-Ras signaling or its IC50 against a given Ras protein (e.g., a given mutant K-Ras) of interest.

A further test addresses T2, wildtype K-Ras (Homo sapiens, UniProt P01116).
T2 construct: GST (N); made in house; host or cells: E. coli BL21 (DE3)
Nature of the test: Nucleotide exchange assay (SOS1, BODIPY FL GDP), wildtype K-Ras. The test is classed as biochemical. The following applies: compound marked *: general methodology of example 7 (nucleotide exchange); read-out: IC50 against wildtype Kras. The procedure:
as §1

Test [1] addresses GST-tagged K-Ras mutant / His-tagged hSOS1 (Homo sapiens, UniProt P01116). The experiment in a line: HTRF assay, K-Ras mutant / SOS1 interaction. In kind it is binding. The following applies: read-out: IC50 against mutant Kras. Put shortly:
(§2)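 Compounds tested in duplicate from 10 μM down to 0.01 μM, incubated about 10 min or longer with GST-K-Ras/anti-GST-Eu and His-hSOS1/anti-6His-XL665 in ~5 mM HEPES pH 7.4 buffer with ~150 mM NaCl, DTT, BSA and Igepal. IC50 derived from 665/620 nm emission ratio.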

A further test concerns the target T3, wildtype Kras / hSOS1 (Homo sapiens, UniProt P01116).
T3 construct: made in house; host or cells: E. coli BL21 (DE3)
Nature of the test: HTRF assay, wildtype Kras / SOS1 interaction. The following applies: read-out: IC50 against wildtype Kras. In kind it is binding. Put shortly:
as §2

Where [2] appears, read: compound nos. 201-213, general methodology of example 5.
[3] abbreviates: compound nos. 102-196, general methodology of example 5.

Chain of GST-tagged K-Ras mutant / His-tagged hSOS1 (P01116 whole entry G12D, form open): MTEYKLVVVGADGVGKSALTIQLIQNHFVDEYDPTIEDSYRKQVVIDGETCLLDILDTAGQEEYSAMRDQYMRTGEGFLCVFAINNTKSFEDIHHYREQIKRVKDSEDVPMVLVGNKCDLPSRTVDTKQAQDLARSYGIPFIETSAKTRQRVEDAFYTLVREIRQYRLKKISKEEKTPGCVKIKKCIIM
T3 sequence (P01116 1-188 isoform P01116-2): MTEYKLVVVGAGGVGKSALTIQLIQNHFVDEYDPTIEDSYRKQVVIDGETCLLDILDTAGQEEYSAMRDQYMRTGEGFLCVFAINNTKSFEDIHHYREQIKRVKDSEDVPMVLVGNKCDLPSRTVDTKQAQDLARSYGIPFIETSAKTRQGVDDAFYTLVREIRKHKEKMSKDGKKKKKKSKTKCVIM
T2 sequence (P01116 1-188 isoform P01116-2): as above
T1 sequence (P01116 1-188 isoform P01116-2 G12D): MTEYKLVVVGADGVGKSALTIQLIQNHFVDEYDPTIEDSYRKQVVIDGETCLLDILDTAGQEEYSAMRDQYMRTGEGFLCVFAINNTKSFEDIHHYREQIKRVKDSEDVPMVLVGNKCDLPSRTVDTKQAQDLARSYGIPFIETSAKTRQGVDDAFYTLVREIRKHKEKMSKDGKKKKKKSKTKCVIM

Consider `CN1CCC[C@H]1COc1nc(N2CCCNCC2)c2cc(Cl)c(-c3cccc4sc(N)nc34)c(F)c2n1` [Compound 101, 4-(6-chloro-4-(1,4-diazepan-1-yl)-8-fluoro-2-(((S)-1-methylpyrrolidin-2-yl)methoxy)quinazolin-7-yl)benzo[d]thiazol-2-amine], for which the IC50 was less than 500 nM on K-Ras G12D mutant and more than 500 nM at wildtype K-Ras.
With `Oc1cc(-c2c(Cl)cc3c(N4C[C@H]5CC[C@@H](C4)N5)nc(OC[C@@]45CCCN4C[C@H](F)C5)nc3c2F)c2ccccc2c1` [Compound 202, 4-(4-((1R,5S)-3,8-diazabicyclo[3.2.1]octan-3-yl)-6-chloro-8-fluoro-2-(((2R,7aS)-2-fluorotetrahydro-1H-pyrrolizin-7a(5H)-yl)methoxy)quinazolin-7-yl)naphthalen-2-ol], the IC50 (in test [1] (setting [2]); at wildtype Kras / hSOS1 (setting [2])) was less than 1500 nM in each case.
Consider `COC1CCCCN(c2nc(OC[C@@H]3CCCN3C)nc3c(F)c(-c4cccc5sc(N)nc45)c(Cl)cc23)C1` (stereo partly drawn) [Compound 474, 4-(6-chloro-8-fluoro-4-(3-methoxyazepan-1-yl)-2-(((S)-1-methylpyrrolidin-2-yl)methoxy)quinazolin-7-yl)benzo[d]thiazol-2-amine], for which the IC50 (in test [1] (compound nos. 401-703); at wildtype Kras / hSOS1 (compound nos. 401-703)) was less than 500 nM each time.
Turning to `Fc1c(-c2cccc3c2CCCC3)c(Cl)cc2c(N3CC4CCC(C3)N4)nc(OC[C@@]34CCCN3C[C@H](F)C4)nc12` [Compound 619, 4-(3,8-diazabicyclo[3.2.1]-octan-3-yl)-6-chloro-8-fluoro-2-(((2R,7aS)-2-fluorotetrahydro-1H-pyrrol-izin-7a(5H)-yl)methoxy)-7-(5,6,7,8-tetrahydronaph-thalen-1-yl)quinazoline], the IC50 (in test [1] (compound nos. 401-703); at wildtype Kras / hSOS1 (compound nos. 401-703)) was more than 500 nM in each case.
Regarding `CN(C)CC1CN(c2nc(OCC34CCCN3CCC4)nc3c(F)c(-c4ccc(F)c5sc(N)nc45)c(Cl)cc23)CCCO1` (stereo not drawn) [Compound 681, 4-(6-chloro-4-(2-((dimethyl-amino)methyl)-1,4-oxaze-pan-4-yl)-8-fluoro-2-((tetra-hydro-1H-pyrrolizin-7a(5H)-yl)methoxy)quinazolin-7-yl)-7-fluorobenzo[d]thiazol-2-amine], the figures for the IC50 (in test [1] (compound nos. 401-703); at wildtype Kras / hSOS1 (compound nos. 401-703)) were less than 500 nM and more than 500 nM, respectively.
On to `N#C/C=C/c1cc2c(N3CC4CCC(C3)N4)nc(OC[C@@]34CCCN3C[C@H](F)C4)nc2c(F)c1-c1ccc(F)c2sc(N)nc12` [Compound 495, (E)-3-(7-(2-amino-7-fluoro-benzo[d]thiazol-4-yl)-4-(3,8-diazabicyclo[3.2.1]octan-3-yl)-8-fluoro-2-(((2R,7aS)-2-fluorotetrahydro-1H-pyrrol-izin-7a(5H)-yl)methoxy)-quinazolin-6-yl)acrylonitrile], for which the values for the IC50 (in test [1] (compound nos. 401-703); on wildtype Kras / hSOS1 (compound nos. 401-703)) were more than 500 nM and less than 500 nM, respectively.
For `Nc1nc2c(-c3c(Cl)cc4c(N5CCC[C@H](N)CC5)nc(OC[C@@]56CCCN5C[C@H](F)C6)nc4c3F)ccc(F)c2s1` [Compound 600, 4-(4-((S)-4-aminoazepan-1-yl)-6-chloro-8-fluoro-2-(((2R,7aS)-2-fluorotetra-hydro-1H-pyrrolizin-7a(5H)-yl)methoxy)quinazolin-7-yl)-7-fluorobenzo[d]thiazol-2-amine], the values for the IC50 (in test [1] (compound nos. 401-703); at wildtype Kras / hSOS1 (compound nos. 401-703)) were less than 500 nM and more than 500 nM, respectively.
On to `Nc1nc2c(-c3c(Cl)cc4c(N5[C@@H]6CC[C@H]5CC(F)C6)nc(OC[C@@]56CCCN5C[C@H](F)C6)nc4c3F)ccc(F)c2s1` (stereo partly drawn) [Compound 304, 4-(6-chloro-8-fluoro-4-((1R,3S,5S)-3-fluoro-8-azabicyclo[3.2.1]octan-8-yl)-2-(((2R,7aS)-2-fluoro-tetrahydro-1H-pyrrolizin-7a(5H)-yl)methoxy)quin-azolin-7-yl)-7-fluorobenzo-[d]thiazol-2-amine], for which the IC50 (in test [1] (compound nos. 301-306); at wildtype Kras / hSOS1 (compound nos. 301-306)) was less than 1500 nM throughout.
For `Nc1nc2c(-c3c(Cl)cc4c(N5CCNCC(F)(F)C5)nc(OC[C@@]56CCCN5C[C@H](F)C6)nc4c3F)ccc(F)c2s1` [Compound 133, 4-(6-chloro-4-(6,6-difluoro-1,4-diazepan-1-yl)-8-fluoro-2-(((2R,7aS)-2-fluorotetrahydro-1H-pyrrolizin-7a(5H)-yl)methoxy)quinazolin-7-yl)-7-fluorobenzo[d]thiazol-2-amine], the IC50 (in test [1] (setting [3]); on wildtype Kras / hSOS1 (setting [3])) was less than 500 nM each time.
In the case of `N#Cc1ccc2ccccc2c1-c1ccc2c(N3CC4CCC(C3)N4)nc(OC[C@@]34CCCN3C[C@H](F)C4)nc2c1F` [Compound 691, 1-(4-(3,8-diazabicyclo-[3.2.1]octan-3-yl)-8-fluoro-2-(((2R,7aS)-2-fluorotetra-hydro-1H-pyrrolizin-7a(5H)-yl)methoxy)quinazolin-7-yl)-2-naphthonitrile], the IC50 (in test [1] (compound nos. 401-703); on wildtype Kras / hSOS1 (compound nos. 401-703)) was more than 500 nM throughout.
With `CO[C@@H]1C[C@@H](COc2nc(N3CCNCC(F)(F)C3)c3cc(Cl)c(-c4cccc5sc(N)nc45)c(F)c3n2)N(C)C1` [Compound 121, 4-(6-chloro-4-(6,6-difluoro-1,4-diazepan-1-yl)-8-fluoro-2-(((2S,4R)-4-methoxy-1-methylpyrrolidin-2-yl)-methoxy)quinazolin-7-yl)-benzo[d]thiazol-2-amine], the IC50 (in test [1] (setting [3]); at wildtype Kras / hSOS1 (setting [3])) was less than 500 nM in each case.
On to `Nc1nc2c(-c3c(Cl)cc4c(N5CC6CCC(C5)N6)nc(OCC5(CN6CCC(F)(F)C6)CC5)nc4c3F)ccc(F)c2s1` [Compound 411, 4-(4-(3,8-diazabicyclo-[3.2.1]octan-3-yl)-6-chloro-2-((1-((3,3-difluoropyrrol-idin-1-yl)methyl)cycloprop-yl)methoxy)-8-fluoroquin-azolin-7-yl)-7-fluorobenzo-[d]thiazol-2-amine], for which the IC50 in test [1] (compound nos. 401-703) is more than 500 nM; on wildtype Kras / hSOS1 (compound nos. 401-703), less than 500 nM.
